Reference: ChEMBL document CHEMBL1147600, “Synthesis of 5'-C-methyl-1',3'-dioxolan-4'-yl nucleosides” (Bioorg Med Chem Lett, 2004)
The source made the active and inactive calls. No cut-off for these calls is given here.

What was measured:
[1] = tested on: Hepatitis C virus; test: Compound was evaluated against hepatitis C virus; IA means inactive; format: functional, organism-based; conditions: Hepacivirus hominis
[2] = tested on: Hepatitis B virus; test: Compound was evaluated against hepatitis B virus; IA means inactive; format: functional, organism-based
[3] = tested on: Huh-7; test: Toxicity against human Huh7 cells was determined up to 100 uM concentration; NA means Not Active; format: cell-based
[4] = tested on: HepG2; test: Toxicity against human hepatoma HepG2 cells was determined up to 100 uM concentration; NA means Not Active; format: cell-based
[5] = Toxicity against human lymphocytes was determined up to 100 uM concentration; NA means Not Active
[6] = tested on: Hepatitis B virus; test: Activity of compound against hepatitis B virus was determined; IA means inactive; format: functional, organism-based
[7] = tested on: Hepatitis C virus; test: Activity of compound against hepatitis C virus was determined; IA means inactive; format: functional, organism-based; conditions: Hepacivirus hominis

Structure (SMILES)	Activity [1]	Activity [2]	Toxicity [3]	Toxicity [4]	Toxicity [5]	Activity [6]	Activity [7]
C[C@H]1O[C@@H](CO)O[C@@H]1n1cc(F)c(N)nc1=O	inactive	inactive	Not Active	Not Active	Not Active	–	–
C[C@H]1O[C@@H](COC(=O)c2ccccc2)O[C@H]1n1cc(F)c(N)nc1=O	inactive	inactive	Not Active	Not Active	Not Active	–	–
C[C@H]1O[C@@H](CO)O[C@H]1n1cc(F)c(N)nc1=O	inactive	inactive	Not Active	Not Active	Not Active	–	–
C[C@H]1O[C@@H](COC(=O)c2ccccc2)O[C@@H]1n1cc(F)c(N)nc1=O	–	–	Not Active	Not Active	Not Active	inactive	inactive
C[C@@H]1OC(CO)OC1n1cc(F)c(N)nc1=O (stereo not given in full)	inactive	inactive	Not Active	Not Active	Not Active	–	–
